Usually IC50 stands for the point on the concentration scale where inhibition reaches its midpoint.

Consider 22 molecules from patent publication US12528792B2, “Sulfonamide compounds and the use thereof in the treatment of cancer” (TROBIO THERAPEUTICS PTY LTD, priority 2019, dated 2026).

Format in all cases: cell-based
Experiment [1] relates to SK-N-SH neuroblastoma cells. Description: Cytotoxicity assay, MTS viability. The note with it: Homo sapiens, 72 hours. As to the method: The ability of compounds of the disclosure to inhibit the proliferation of SK—N—SH neuroblastoma cells was assessed. The SK—N—SH cell line was maintained as a monolayer in Dulbeccos Modified Eagles medium (DMEM) supplemented with 10% foetal bovine serum (FBS) and grown at 37° C. in a humidified atmosphere with 5% CO2. For the cytotoxicity assay, SK—N—SH cells were seeded at a density of 2×10^3 cells per well in 96-well plates. The cells were treated with serial dilutions of the test compounds (1:2 starting concentration 100 µM) and viability measured after 72 hours using a standard MTS assay. Cell viability was normalised to control (vehicle alone) and dose response curves and EC50 values (Table 3) were determined using Graph Pad Prism 6.

The test system of experiment [2] is A2780 (ovarian) cells. Description: Anti-proliferative activity, Cell-Titre luminescent viability assay. To be noted: Homo sapiens, 72 h exposure, Cell-Titre luminescent reagent. On the procedure: (§1) The ability of compounds of the disclosure to inhibit the proliferation of cancer cells representative of non-small cell lung cancer and ovarian cancer (Table 1), and pancreatic cancer, colorectal cancer and prostate cancer (Table 2) was assessed. Briefly, a predetermined number of cells as calculated from cell growth assays for each of the cell lines employed were seeded into their respective culture medium (using ATCC culture parameters—http://www.atcc.org) and cultured for 24 h at 37° C. and 5% CO2 in 96-well culture plates. Once attached, each cell line was then exposed to various concentrations of each respective analogue (100, 30, 10, 3, 1 and 0.3 µM or 30, 10, 3, 1, 0.3 and 0.1 μM), cultured for a further 72 h and exposed to Cell-Titre luminescent reagent (100 μL/well) for a further 30 min. Luminescence was captured using an EnVision multilabel reader and the data for each analogue concentration compared against no treatment control. Cell viability was normalised to control (vehicle alone) and dose response curves, and half maximal effective concentration (EC50) values were determined using Graph Pad Prism 6 (nonlinear regression sigmoidal dose-response variable slope).

Experiment [3] deals with A549 (NSCLC) cells. The description is as above. To be noted: Homo sapiens, 72 h exposure, Cell-Titre luminescent reagent. On the procedure: as §1

A value given as a limit tells only on which side of the number the result lay.

In the case of `Cn1cc(S(=O)(=O)N2CCC(C(=O)Nc3ccc(C(F)(F)F)cc3)CC2)cc1C(N)=O` [Compound 2, 1-((5-carbamoyl-1-methyl-1H-pyrrol-3-yl)sulfonyl)-N-(4-(trifluoromethyl)phenyl)piperidine-4-carboxamide], the half-maximal inhibitory concentration (IC50) in experiment [1] is 26.4 µM; in experiment [2] it was 13.9 µM; in experiment [3] it was 33.7 µM.

On to `CCC(C)c1ccc(NC(=O)C2CCN(S(=O)(=O)c3ccc4c(c3)CCN4)CC2)cc1` (stereo not shown) [Compound 3, N-(4-(sec-butyl)phenyl)-1-(indolin-5-ylsulfonyl) piperidine-4-carboxamide], for which the concentration for half-maximal inhibition (IC50) in experiment [1] was 19.3 µM; in experiment [2], more than 100 µM; in experiment [3], 19.9 µM.

`O=C(Nc1ccc(C(F)(F)F)cc1)C1CCN(S(=O)(=O)c2ccc3c(c2)CCN3)CC1` [Compound 5, 1-(indolin-5-ylsulfonyl)-N-(4-(trifluoromethyl)phenyl)piperidine-4-carboxamide]: the half-maximal inhibitory concentration (IC50) in experiment [1] is 27.4 µM; in experiment [2], 14.8 µM; in experiment [3], 39.6 µM.

As to `Cc1ccc(NC(=O)C2CCN(S(=O)(=O)c3ccc4[nH]ccc4c3)CC2)cc1O` [Compound 7, 1-((1H-indol-5-yl)sulfonyl)-N-(3-hydroxy-4-methylphenyl)piperidine-4-carboxamide], the 50% inhibitory concentration (IC50) in experiment [1] came to 32.6 µM; in experiment [2] it was 41.4 µM; in experiment [3], 44.4 µM.

Regarding `Cn1cc(S(=O)(=O)N2CCN(C(=O)Nc3ccc(C(F)(F)F)cc3)CC2)cc1C(N)=O` [Compound 11, 4-((5-carbamoyl-1-methyl-1H-pyrrol-3-yl)sulfonyl)-N-(4-(trifluoromethyl)phenyl)piperazine-1-carboxamide], the half-inhibitory concentration (IC50) in experiment [1] was more than 100 µM; in experiment [2], 48.4 µM; in experiment [3], more than 100 µM.

For `O=C(Nc1ccc(C(F)(F)F)cc1)N1CCN(S(=O)(=O)c2ccc3c(c2)CCN3)CC1` [Compound 14, 4-(indolin-5-ylsulfonyl)-N-(4-(trifluoromethyl)phenyl)piperazine-1-carboxamide], the values for the 50% inhibitory concentration (IC50) in experiment [1], in experiment [2] and in experiment [3] were 26.6 µM, 24.8 µM and 33.1 µM, respectively.

As for `CCC(C)c1ccc(NC(=O)N2CCN(S(=O)(=O)c3ccc4[nH]ccc4c3)CC2)cc1` (stereo not shown) [Compound 15, 4-((1H-indol-5-yl)sulfonyl)-N-(4-(sec-butyl)phenyl)piperazine-1-carboxamide], the values for the 50% inhibitory concentration (IC50) in experiment [1], in experiment [2] and in experiment [3] were 14.9 µM, 22.3 µM and 25.8 µM, respectively.

As for `Cc1ccc(NC(=O)N2CCN(S(=O)(=O)c3ccc4[nH]ccc4c3)CC2)cc1O` [Compound 16, 4-((1H-indol-5-yl)sulfonyl)-N-(3-hydroxy-4-methylphenyl)piperazine-1-carboxamide], the results for the IC50 in experiment [1], in experiment [2] and in experiment [3] were 31.5 µM, 28.8 µM and 17.3 µM, respectively.

On to `O=C(Nc1ccc(C(F)(F)F)cc1)N1CCN(S(=O)(=O)c2ccc3[nH]ccc3c2)CC1` [Compound 17, 4-((1H-indol-5-yl)sulfonyl)-N-(4-(trifluoromethyl)phenyl)piperazine-1-carboxamide], for which the results for the IC50 in experiment [1], in experiment [2] and in experiment [3] were 22.9 µM, 13.9 µM and 6.5 µM, respectively.

In the case of `CCC(C)c1ccc(NC(=O)c2ccn(S(=O)(=O)c3cc(C(N)=O)n(C)c3)c2)cc1` (stereo not shown) [Compound 18, 4-((3-((4-(sec-butyl)phenyl)carbamoyl)-1H-pyrrol-1-yl)sulfonyl)-1-methyl-1H-pyrrole-2-carboxamide], the IC50 in experiment [1] turned out to be 22.3 µM; in experiment [2], 6.8 µM; in experiment [3] it was 27.6 µM.

Consider `CCC(C)c1ccc(NC(=O)c2ccn(S(=O)(=O)c3ccc4c(c3)CCN4)c2)cc1` (stereo not shown) [Compound 21, N-(4-(sec-butyl)phenyl)-1-(indolin-5-ylsulfonyl)-1H-pyrrole-3-carboxamide], for which the IC50 was 27.1 µM in experiment [1], 20 µM in experiment [2] and 37.4 µM in experiment [3].

As to `Cc1ccc(NC(=O)c2ccn(S(=O)(=O)c3ccc4c(c3)CCN4)c2)cc1O` [Compound 22, N-(3-hydroxy-4-methylphenyl)-1-(indolin-5-ylsulfonyl)-1H-pyrrole-3-carboxamide], the figures for the half-inhibitory concentration (IC50) in experiment [1], in experiment [2] and in experiment [3] were 57.6 µM, more than 100 µM and more than 100 µM, respectively.

Regarding `O=C(Nc1ccc(C(F)(F)F)cc1)c1ccn(S(=O)(=O)c2ccc3c(c2)CCN3)c1` [Compound 23, 1-(indolin-5-ylsulfonyl)-N-(4-(trifluoromethyl)phenyl)-1H-pyrrole-3-carboxamide], the IC50 in experiment [1] is 12.8 µM; in experiment [2], 5.3 µM; in experiment [3], 11.6 µM.

For the molecule `Cc1ccc(NC(=O)c2ccn(S(=O)(=O)c3ccc4[nH]ccc4c3)c2)cc1O` [Compound 25, 1-((1H-indol-5-yl)sulfonyl)-N-(3-hydroxy-4-methylphenyl)-1H-pyrrole-3-carboxamide], the IC50 in experiment [1] was 30 µM; in experiment [2] it was more than 100 µM; in experiment [3], more than 100 µM.

`CCC(C)c1ccc(NC(=O)C2CCN(S(=O)(=O)c3ccn(C)c3)CC2)cc1` (stereo not shown) [Compound 28, N-(4-(sec-butyl)phenyl)-1-((1-methyl-1H-pyrrol-3-yl)sulfonyl)piperidine-4-carboxamide]: the half-inhibitory concentration (IC50) was determined as 11.7 µM in experiment [1], 24.7 µM in experiment [2] and 13 µM in experiment [3].

In the case of `CCC(C)c1ccc(NC(=O)C2CCN(S(C)(=O)=O)CC2)cc1` (stereo not shown) [Compound 29, N-(4-(sec-butyl)phenyl)-1-(methylsulfonyl) piperidine-4-carboxamide], the IC50 in experiment [1], in experiment [2] and in experiment [3] was more than 100 µM in each case.

As to `CCC(C)c1ccc(CCC2CCN(S(=O)(=O)c3cc(C(N)=O)n(C)c3)CC2)cc1` (stereo not shown) [Compound 34, 4-((4-(4-(sec-butyl)phenethyl)piperidin-1-yl)sulfonyl)-1-methyl-1H-pyrrole-2-carboxamide], the half-inhibitory concentration (IC50) in experiment [1] is 46.2 µM; in experiment [2] it was 5.4 µM; in experiment [3], 3.2 µM.

Consider `CC(C)Cc1ccc(NC(=O)c2ccn(S(=O)(=O)c3ccc4[nH]ccc4c3)n2)cc1F` [Compound 112, 1-((1H-indol-5-yl)sulfonyl)-N-(3-fluoro-4-isobutylphenyl)-1H-pyrazole-3-carboxamide], for which the concentration for half-maximal inhibition (IC50) in experiment [2] came out at 8.81 µM; in experiment [3], 5.11 µM.

As to `CC(C)(C)c1ccc(NC(=O)c2ccn(S(=O)(=O)c3ccc4[nH]ccc4c3)n2)cc1F` [Compound 114, 1-((1H-indol-5-yl)sulfonyl)-N-(4-(tert-butyl)-3-fluorophenyl)-1H-pyrazole-3-carboxamide], the 50% inhibitory concentration (IC50) came to 10.5 µM in experiment [2] and 5.93 µM in experiment [3].

For `COc1ccc(NC(=O)c2ccn(S(=O)(=O)c3ccc4[nH]ccc4c3)n2)cc1` [Compound 115, 1-((1H-indol-5-yl)sulfonyl)-N-(4-methoxyphenyl)-1H-pyrazole-3-carboxamide], the half-inhibitory concentration (IC50) in experiment [2] and in experiment [3] was more than 30 µM each time.

With `COc1ccc(NC(=O)c2ccn(S(=O)(=O)c3ccc4[nH]ccc4c3)n2)cc1F` [Compound 116, 1-((1H-indol-5-yl)sulfonyl)-N-(3-fluoro-4-methoxyphenyl)-1H-pyrazole-3-carboxamide], the IC50 in experiment [2] was more than 30 µM; in experiment [3] it was 13.4 µM.

Take `O=C(Nc1ccc2c(c1)OCO2)c1ccn(S(=O)(=O)c2ccc3[nH]ccc3c2)n1` [Compound 117, 1-((1H-indol-5-yl)sulfonyl)-N-(benzo[d][1,3]dioxol-5-yl)-1H-pyrazole-3-carboxamide]: the IC50 in experiment [2] and in experiment [3] was more than 30 µM in each case.
